Source: article PMC8103899, “Allyl Isothiocyanate: A TAS2R38 Receptor-Dependent Immune Modulator at the Interface Between Personalized Medicine and Nutrition” (Frontiers in Immunology, 2021)

Columns and labels:
[1] = tested on: NO production; experiment: Nitric oxide detection by flow cytometry (DAF-FM) in PBMC; type: cell-based, human; settings: for NO production increase: monocytes, 5h
Description: PBMC (0.25x10^6) were suspended in DMEM medium and exposed to solvent control, AITC or 100 µM of the NO-donor SNAP (positive control) in 96-well plates for 30-270 min in a humidified incubator (5% CO2, 37°C). After that, cells were then loaded with 0.5 µM DAF-FM diacetate prepared in HBSS buffer for another 30 min. DAF-FM loading at this low concentration allows reducing the background fluorescence and improving the signal to noise ratio in a single cell ([34]). After incubation, the cells were washed twice with PBS, followed by 30 min. de-esterification of the intracellular diacetates in the dark at room temperature. Fluorescence signals (ex 488 nm, em 530± 30 nm) were monitored using a FACSCalibur™ flow cytometer. The median fluorescence intensity (MFI) of each sample was calculated using FlowJo software (Ashland, Oregon, USA). DAF-FM-DA has a detection limit of about 5 nM NO ([35]).
Figure 3 AITC stimulates NO production and exerts bactericidal activity in dependence of the TAS2R38 haplotype. PBMC were isolated from AVI/AVI or PAV/PAV genotype subjects and (A) exposed to 0.01% DMSO (SC), AITC, the NO-donor SNAP (positive control), or the NO scavenger cPTIO for the indicated time points. Then, 0.5 µM DAF-FM diacetate was added for 30 min. Fluorescence signals (ex 488 nm, em 530± 30 nm) were monitored using a FACSCalibur™. The median fluorescence intensity (MFI) of each sample was calculated using FlowJo software (Ashland, Oregon, USA). A representative histogram of one PAV/PAV subject is shown on the top, (B) incubated with E. coli K-12 at MOI 0.5 and exposed to 0.01% DMSO (SC) or AITC for 120 min at 37°C. Cell membrane potential depolarization was determined by staining bacteria with 1 µg/ml DiBAC4(3) for 10 min, in the dark at room temperature. Representative scattergrams of E. coli K-12 and PBMC treated with E. coli K-12 are given. An FSC/SSC plot was first made and E. coli K-12 cells gated. The population was copied to a SSC/DiBAC4(3)-scatterplot identifying the percentage of depolarized bacteria. Bars are mean value + SD, *p < 0.05, **p < 0.01. Significance of difference was calculated relative to the respective control by one-way ANOVA. […]

[2] = tested on: p-ERK1/2, p-p38, p-Akt; experiment: Immunoblotting of MAPK and AKT phosphorylation in PBMC; type: cell-based, human
Description: Proteins of interest were analyzed by immunoblotting as described before ([36]). Densitometric analysis was done to quantify the immunoblots using Quantity One software (Bio-Rad, Munich, Germany) and normalized against β-actin.
Figure 4 AITC mediates MAPK down-stream signaling in dependence of the TAS2R38 haplotype. (A, B) PBMC were treated with test compounds for the indicated time points and pellets were collected for protein expression analysis. Representative immunoblots are given. Densitometric analysis was done to quantify the immunoblots using Quantity One software (Bio-Rad, Munich, Germany) and normalized against β-actin, which was used as loading control. The graphs show phosphorylated ERK1/2, p-38 or Akt, protein levels relative to control as quantified by pixel densitometry. Bars are mean + SD; *p < 0.05, **p < 0.01 (n ≥ 2). Significance of difference was calculated relative to the corresponding solvent control determined by one-way ANOVA (SC, 0.01% DMSO).
Figure 5 In bacterial LPS stimulated PBMC, AITC triggers MAPK activation and TNF-α inhibition in dependence of the TAS2R38 genotype. PBMC were exposed to AITC or 0.01% DMSO (SC) together with 100 pg/mL LPS. (A) Representative immunoblots are given. Densitometric analysis was done to quantify the immunoblots using Quantity One software (Bio-Rad, Munich, Germany) and normalized against β-actin, which was used as loading control. (B, C) Cytokine secretion at 3 and 24 h was analyzed using ELISA kits. (D) Time kinetic of TNF-α mRNA expression. Results are means + SD and given as fold of the solvent control. Results were calculated relative to the corresponding solvent control (SC, 0.01% DMSO). Significance of difference was determined compared to the respective SC by one-way ANOVA, *p < 0.05, **p < 0.01.

[3] = set-up: method as in PMID 26317351; settings: rats, oral dosing; cited from earlier work
[4] = tested on: TAS2R38-PAV receptor; set-up: method as in PMID 20022913; settings: cited from earlier work

With `C=CCN=C=S` [AITC, allyl isothiocyanate] the “NO in monocyte cell population” value ([1]; AITC ≥ 10 µM, 1h, PAV/PAV (not AVI/AVI)) was “insignificant increase”, the “NO production in the lymphocyte population” value ([1]; PAV/PAV vs AVI/AVI, NO only detected after 5h at 100 µM AITC) was “no differential regulation” and the NO production increase ([1]; AVI/AVI, 100 µM AITC) was 41%. For the same compound, the NO production increase ([1]; PAV/PAV, 3 µM AITC) was 46%, the “p-ERK, p-p38 and p-Akt phosphorylation” value ([2]; 5 min, 100 pg/mL LPS and AITC, PAV/PAV subjects) was “upregulation” and the “p-ERK1/2 and p-p38 phosphorylation” value ([2]; PBMC, PAV/PAV group, in contrast to AVI/AVI) was “quick activation (5 min. AITC exposure), followed by dephosphorylation”. For the same compound, the p-Akt phosphorylation ([2]; PBMC, in dependence of the TAS2R38 genotype) was “same activation/inactivation pattern”, the “time to peak plasma level” value [3] was at most 0.5 h and the “activation of TAS2R38 taster variant among 25 TAS2Rs” value ([4]; HEK293T-Gα16gust44 cells transiently transfected) was “selectively triggered the taster variant”. The “activation of the TAS2R38-PAV receptor” value [4] was “activated” and the threshold concentration ([4]; heterologous expressed TAS2R38-PAV, in vitro) was 10 µM.
